Experiments:
[1] = system: rabbit reticulocyte lysate system; test: In vitro translation efficiency of capped luciferase mRNA, method I transcripts; format: biochemical; details: for Translation efficiency in comparison with m^7GpppG-LUC mRNA, Experiment No. 1: experiment 1; for Translation efficiency in comparison with m^7GpppG-LUC mRNA, Experiment No. 2: experiment 2; for Translation efficiency in comparison with m^7GpppG-LUC mRNA, Experiment No. 3: experiment 3; for Translation efficiency in comparison with m^7GpppG-LUC mRNA, Mean: mean of experiments
Protocol: A DNA template for in vitro transcription was synthesized by PCR from the plasmid SP6p-5′UTR β-globin-LUCiferase. The template contained the SP6 promoter followed by the 5′-UTR sequence of rabbit β-globin mRNA and the entire firefly luciferase mRNA coding region. A typical in vitro transcription reaction mixture (50 μl) contained SP6 transcription buffer (Fermentas, cat. no. EP0131), 2 μg of DNA template, 2 U/μl RiboLock Ribonuclease Inhibitor (Fermentas), 2 mM each of ATP, CTP, and UTP, 0.1 mM GTP, and 1 mM dinucleotide cap analog. The reaction mixture was incubated at 37° C. for 5 min before the addition of SP6 RNA polymerase (Fermentas) to a final concentration of 2 U/μl. After 30 min of incubation at 37° C., GTP was added to a final concentration of 1 mM, and the reaction continued for an additional 90 min. The reaction mixtures were then treated with 1 U of DNase RQ1 (RNAse-free, Promega) per μg of template DNA in transcription buffer at 37° C. for 20 min. RNA transcripts were purified on DEPC-treated Sephadex G-50 spin columns (Pharmacia). The integrity of transcripts was confirmed by electrophoresis on a non-denaturating, 1% agarose gel. Concentrations were determined spectrophotometrically. The transcripts were stored at −80° C. until used.
(§1) A micrococcal nuclease-treated rabbit reticulocyte lysate system (Flexi Rabbit Reticulocyte Lysate System, Promega) was used for in vitro translation. Translation reactions were performed in 10 μl for 60 min at 30° C. A typical reaction mixture contained 40% reticulocyte lysate, the 20 “standard” amino acids (0.01 mM each), MgCl2 (1.2 mM), potassium acetate (170 mM), and mRNA (five different concentrations of each transcript, ranging from 0.25 to 4 μg/ml). Luciferase activity was measured in a luminometer (Glomax, Promega). Linear regression was used to fit the data points (luciferase activity versus concentration of mRNA transcript), and translational efficiency was defined as the slope of this line. The relative translational efficiencies of the test mRNAs were compared to that of m^7GpppG-capped luciferase mRNA, the latter being defined as 1.0.

eIF4E = eIF4E (Mus musculus, UniProt P63073); test: Binding affinity of cap analogs to eIF4E by fluorescence titration; details: equilibrium association constant; for Cap analog/eIF4E affinity (KAS): 20 °C, pH 7.2, ionic strength 150 mM
Chain of eIF4E (P63073 28-217 limits assumed): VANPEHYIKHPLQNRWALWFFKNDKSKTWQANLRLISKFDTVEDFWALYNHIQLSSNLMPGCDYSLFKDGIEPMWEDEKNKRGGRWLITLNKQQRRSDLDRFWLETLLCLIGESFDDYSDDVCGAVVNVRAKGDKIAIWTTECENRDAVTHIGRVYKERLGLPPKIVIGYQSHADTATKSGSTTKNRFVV
Protocol: Fluorescence titration measurements were carried out on an LS-50B or LS-55 spectrofluorometer (Perkin Elmer Co.) at 20.0±0.2° C. in 50 mM HEPES/KOH (pH 7.2), 0.5 mM EDTA, and 1 mM DTT, with ionic strength adjusted to 150 mM by addition of KCl. Various cap analogue solutions, of increasing concentration, were added in 1 μl aliquots to 1.4 ml of 0.1 or 0.2 μM protein solutions. Fluorescence intensities were measured with excitation at 280 nm or 295 nm with 2.2 nm bandwidth, and detection at 337 nm with 4 nm bandwidth and a 290-nm cut-off filter. The data were corrected for sample dilution and inner filter effects. Equilibrium association constants (Kas) were determined by fitting the theoretical dependence of fluorescence intensity on cap analog concentration to the experimental data, as otherwise described in A. Niedźwiecka et al., “Biophysical studies of eIF4E cap-binding protein: recognition of mRNA 5′ cap structure and synthetic fragments of eIF4G and 4E-BP1 proteins,” J. Mol. Biol., vol. 312, pp. 615-635 (2002). The concentration of protein was allowed to be a free parameter in the equilibrium equation, to determine the amount of “active” protein. The final Kas was calculated as a weighted average of three to ten independent titrations, with the weights taken as the reciprocals of the squares of the numerical standard deviations. Numerical nonlinear least-square regression analysis was performed using ORGIN 6.0 (Microcal Software Inc., USA).
The binding affinities of eukaryotic eIF4E for various cap analogs were determined by fluorescence quenching. This biophysical test allows one to predict the potential efficacy of cap analogs in translation. Those having higher affinities for eIF4E than the unmodified cap analog (m^7GpppG) are expected to be better recognized by the translational machinery, leading to higher translational efficiencies. They also are expected to compete more effectively with unmodified mRNA when free cap dinucleotides are used to inhibit translation. See generally E. Grudzien-Nogalska et al., “Synthesis of anti-reverse cap analogs (ARCAs) and their applications in mRNA translation and stability,” Methods Enzymol., vol. 431, pp. 203-227 (2007).

Human DcpS = molecular target: T1, Human DcpS (Homo sapiens, UniProt Q96C86); test: Assay of susceptibility to DcpS (RP HPLC); format: biochemical
T1 construct: made in house; host or cells: Escherichia coli
T1 sequence (Q96C86 1-337): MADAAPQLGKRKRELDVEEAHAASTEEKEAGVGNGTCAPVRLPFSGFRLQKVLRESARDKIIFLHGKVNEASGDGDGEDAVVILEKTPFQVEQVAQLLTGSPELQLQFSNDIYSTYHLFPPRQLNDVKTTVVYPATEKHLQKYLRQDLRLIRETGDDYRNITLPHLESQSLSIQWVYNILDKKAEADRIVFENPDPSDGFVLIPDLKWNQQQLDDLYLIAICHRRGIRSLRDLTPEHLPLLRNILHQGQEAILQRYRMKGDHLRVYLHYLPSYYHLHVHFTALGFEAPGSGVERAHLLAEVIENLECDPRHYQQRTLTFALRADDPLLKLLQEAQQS
Protocol: Human DcpS was expressed in Escherichia coli as described in L. Cohen et al., “Nematode m^7GpppG and m3^2,2,7GpppG decapping: activities in Ascaris embryos and characterization of C. elegans scavenger DcpS,” RNA, vol. 10, pp. 1609-1624 (2004). A 15 μM solution of the protein in 20 mM Tris buffer, pH 7.5, containing 50 mM KCl, 0.2 mM EDTA, 1 mM DTT, 0.5 mM PMSF, and 20% glycerol was stored at −80° C. until used. Enzymatic reactions were carried out at 30° C. in 500 μl of 50 mM Tris-HCl, pH 7.9, containing 20 mM MgCl2 and 60 mM (NH4)2SO4. A 40 μM solution of the selected cap analog was treated with 5.0 μl of DcpS for 120 min. At times of 10, 30, 60, and 120 min, a 100-μl sample was collected from the reaction mixture and deactivated by incubation at 90° C. for 2 min. Samples were analyzed without further treatment by analytical RP HPLC with a linear gradient of methanol in 0.1 M KH2PO4, pH 6.0, from 0-50% over 15 min.

[2] = system: rabbit reticulocyte lysate system; test: In vitro translation efficiency of capped luciferase mRNA with 31-base poly(A) tail, method II transcripts; format: biochemical; details: for Translation efficiency in comparison to m^7GpppG-LUC-(A)31 mRNA, Experiment No. 4: experiment 4; for Translation efficiency in comparison to m^7GpppG-LUC-(A)31 mRNA, Experiment No. 5: experiment 5; for Translation efficiency in comparison to m^7GpppG-LUC-(A)31 mRNA, Mean: mean of experiments
Protocol: Capped, polyadenylated luciferase mRNAs were synthesized in vitro by PCR from a dsDNA template that contained the SP6 promoter, the 5′-UTR sequence of rabbit β-globin mRNA, the entire firefly luciferase coding region, and 31 adenosine residues. A typical transcription reaction mixture (40 μl) contained SP6 transcription buffer (Fermentas), 0.7 ug of DNA template, 1 U/μl RiboLock Ribonuclease Inhibitor (Fermentas), 0.5 mM each of ATP, CTP, and UTP, 0.1 mM GTP, and 0.5 mM dinucleotide cap analog. The reaction mixture was incubated at 37° C. for 5 min before addition of SP6 RNA polymerase (Fermentas) to a final concentration of 1 U/μl, and incubation then continued for 45 min at 37° C. The reaction mixture was treated with DNase as in Method I. RNA transcripts were purified with NucAway Spin Columns (Ambion). The integrity of transcripts and quantitation was performed as in Method I.
as §1

[3] = 40 μM cap analog, 30° C., up to 120 min

SMILES	Cap analog/eIF4E affinity (KAS) (eIF4E)	Susceptibility to DcpS (Human DcpS; [3])	Translation efficiency in comparison to m^7GpppG-LUC-(A)31 mRNA, Experiment No. 4 [2]	Translation efficiency in comparison to m^7GpppG-LUC-(A)31 mRNA, Experiment No. 5 [2]	Translation efficiency in comparison to m^7GpppG-LUC-(A)31 mRNA, Mean [2]	Susceptibility to DcpS (Human DcpS; Table 3)	other results
[BH3-]P(=O)(OP(=O)(O)OCC1OC(n2cnc3c(=O)[nH]c(N)nc32)C(O)C1O)OP(=O)(O)OCC1OC(n2c[n+](C)c3c(=O)[nH]c(N)nc32)C(O)C1O (mixture of isomers) [m^7GppBH3pG]	–	–	–	–	–	–	Translation efficiency in comparison with m^7GpppG-LUC mRNA, Experiment No. 1 [1]: 1.66; Translation efficiency in comparison with m^7GpppG-LUC mRNA, Experiment No. 2 [1]: 1.42; Translation efficiency in comparison with m^7GpppG-LUC mRNA, Experiment No. 3 [1]: 1.14; Translation efficiency in comparison with m^7GpppG-LUC mRNA, Mean [1]: 1.41; In vitro translational efficiency, method I ([1]; relative to m^7GpppG-capped luciferase mRNA = 1.0): 1.41 ± 0.26
[BH3-]P(=O)(OP(=O)(O)OCC1OC(n2cnc3c(=O)[nH]c(N)nc32)C(O)C1O)OP(=O)(O)OCC1OC(n2c[n+](C)c3c(=O)[nH]c(N)nc32)C(OC)C1O (single isomer, unassigned) [m2^7,2′-OGppBH3pG (D1), m2^7,2′-OGppBH3pG]	39.4 ± 1.2 μM^−1	resistant	1.87	3.44	2.66	–	–
[BH3-]P(=O)(OP(=O)(O)OCC1OC(n2cnc3c(=O)[nH]c(N)nc32)C(O)C1O)OP(=O)(O)OCC1OC(n2c[n+](C)c3c(=O)[nH]c(N)nc32)C(OC)C1O (single isomer, unassigned) [m2^7,2′-OGppBH3pG (D2), m2^7,2′-OGppBH3pG]	13.2 ± 0.2 μM^−1	resistant	3.16	3.53	3.35	–	–
CO[C@@H]1[C@H](O)[C@@H](COP(=O)([O-])OP(O)(=S)OP(=O)(O)OC[C@H]2O[C@@H](n3cnc4c(=O)[nH]c(N)nc43)[C@H](O)[C@@H]2O)O[C@H]1[n+]1cn(C)c2c(=O)[nH]c(N)nc21 (single isomer, unassigned) [m2^7,2′-OGppSpG (D1), m2^7,2′-OGppSpG, reference compound]	–	–	2.92	2.83	2.88	–	–
CO[C@@H]1[C@H](O)[C@@H](COP(=O)([O-])OP(O)(=S)OP(=O)(O)OC[C@H]2O[C@@H](n3cnc4c(=O)[nH]c(N)nc43)[C@H](O)[C@@H]2O)O[C@H]1[n+]1cn(C)c2c(=O)[nH]c(N)nc21 (single isomer, unassigned) [m2^7,2′-OGppSpG (D2), m2^7,2′-OGppSpG, reference compound]	–	–	3.20	3.02	3.11	–	–
C[n+]1cn(C2OC(COP(O)(=[Se])OP(=O)([O-])OP(=O)(O)OCC3OC(n4cnc5c(=O)[nH]c(N)nc54)C(O)C3O)C(O)C2O)c2nc(N)[nH]c(=O)c21 (single isomer, unassigned) [m^7GpSeppG (D1), m^7GpSeppG]	–	–	–	–	–	resistant	–
C[n+]1cn(C2OC(COP(O)(=[Se])OP(=O)([O-])OP(=O)(O)OCC3OC(n4cnc5c(=O)[nH]c(N)nc54)C(O)C3O)C(O)C2O)c2nc(N)[nH]c(=O)c21 (single isomer, unassigned) [m^7GpSeppG (D2), m^7GpSeppG]	–	–	–	–	–	resistant	–
Nc1nc2c(ncn2[C@@H]2O[C@H](COP(=O)(O)OP(=O)(O)OP(=O)(O)OC[C@H]3O[C@@H](n4cnc5c(N)ncnc54)[C@H](O)[C@@H]3O)[C@@H](O)[C@H]2O)c(=O)[nH]1 [ApppG, reference compound]	–	–	0.19	0.18	0.19	–	Translation efficiency in comparison with m^7GpppG-LUC mRNA, Experiment No. 1 [1]: 0.34; Translation efficiency in comparison with m^7GpppG-LUC mRNA, Experiment No. 2 [1]: 0.55; Translation efficiency in comparison with m^7GpppG-LUC mRNA, Experiment No. 3 [1]: 0.53; Translation efficiency in comparison with m^7GpppG-LUC mRNA, Experiment No. 4 ([1]; experiment 4): 0.48; Translation efficiency in comparison with m^7GpppG-LUC mRNA, Mean [1]: 0.48; Translation efficiency in comparison to m^7GpppG-LUC-(A)31 mRNA, Experiment No. 1 ([2]; experiment 1): 0.27; Translation efficiency in comparison to m^7GpppG-LUC-(A)31 mRNA, Experiment No. 2 ([2]; experiment 2): 0.16; Translation efficiency in comparison to m^7GpppG-LUC-(A)31 mRNA, Experiment No. 3 ([2]; experiment 3): 0.14
CO[C@@H]1[C@H](O)[C@@H](COP(=O)(O)OP(=O)([O-])OP(=O)(O)OC[C@H]2O[C@@H](n3cnc4c(=O)[nH]c(N)nc43)[C@H](O)[C@@H]2O)O[C@H]1n1c[n+](C)c2c(O)nc(N)nc21 [m2^7,2′-OGpppG, reference compound]	10.8 ± 0.3 μM^−1	hydrolyzed	–	–	–	hydrolyzed	Cap analog-eIF4E affinity (KAS) (eIF4E; Table 3): 10.8 ± 0.3 μM^−1
C[n+]1cn([C@@H]2O[C@H](COP(=O)(O)OP(=O)(O)OP(=O)(O)OC[C@H]3O[C@@H](n4c[n+](C)c5c(=O)[nH]c(N)nc54)[C@H](O)[C@@H]3O)[C@@H](O)[C@H]2O)c2nc(N)[nH]c(=O)c21 [m^7Gpppm^7G, reference compound]	5.0 ± 0.2 μM^−1	hydrolyzed	–	–	–	–	–

Source: patent US8519110B2, “mRNA cap analogs” (Board of Supervisors of Louisiana State University And …, priority 2008, dated 2013)
